We go through 52 molecules from patent publication US12612412B2, “Antiviral heterocyclic compounds” (Enanta Pharmaceuticals, Inc., priority 2021, dated 2026).

The test system of the first assay is genotype A, "Long" strain RSV. Nature of the assay: RSV-A assay (CPE protection in Hep-2 cells, ATPlite readout). It counts as cell-based, Human respiratory syncytial virus (HRSV). The note with it: human respiratory syncytial virus, RSV-A Long strain, MOI 0.1, CPE protection, read-out: Human RSV-A (“Long”) EC50. In a few lines: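 Protection from RSV-induced cytopathic effect measured by ATP content (ATPlite) after 5-day culture. Infection used genotype A Long virus at MOI 0.1 on 8,000 Hep-2 cells per well, with compound serially diluted 2-fold; values are EC50.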
For `COc1cc(C(=O)NC[C@](O)(c2cc3c(c(-c4cc(F)cc(Cl)c4Cl)n2)OC[C@]3(C)C(N)=O)C2CC2)cc2cn(C3CC3)nc12` [Example 1285], the EC50 was under 200 nM.
Consider `COc1cc(C(=O)NC[C@](O)(c2cc3c(c(-c4ccc5c(c4)OC(F)(F)O5)n2)OC[C@]3(C)C(N)=O)C2CC2)cc2sc(C)nc12` [Example 1291], for which the EC50 was under 200 nM.
As to `COc1cc(C(=O)NC[C@](O)(c2cc3c(c(-c4cc(F)cc(F)c4F)n2)OC[C@]3(C)C(N)=O)C(F)(F)F)cc2cn(C3CC3)nc12` [Example 1247], the EC50 was under 200 nM.
On to `Cc1cc2cc(C(=O)NC[C@](O)(c3cc4c(c(-c5ccc6c(c5)OC(F)(F)O6)n3)OC[C@]4(C)C(N)=O)C3CC3)cc(OC3CC3)c2nc1Cl` [Example 1079], for which the EC50 was under 200 nM.
Consider `COc1cc(C(=O)NC[C@](O)(c2cc3c(c(-c4cc(Cl)c(Cl)cc4F)n2)OC[C@]3(C)C(N)=O)C(F)(F)F)cc2cn(C3CC3)nc12` [Example 1267], for which the EC50 was under 200 nM.
Regarding `COc1cc(C(=O)NC[C@](O)(c2cc3c(c(N4CCCC(F)(F)C4)n2)OC[C@]3(C)C(N)=O)C(F)(F)F)cc2cn(C3CC3)nc12` [Example 1271], the EC50 is under 200 nM.
Consider `COc1cc(C(=O)NC[C@](O)(c2cc3c(c(-c4cccc(F)c4Cl)n2)OC[C@]3(C)C(N)=O)C2CC2)cc2cc(C)c(Cl)nc12` [Example 1073], for which the EC50 is under 200 nM.
On to `COc1cc(C(=O)NC[C@](O)(c2cc3c(c(-c4ccc(F)c(Cl)c4)n2)OC[C@]3(C)C(N)=O)C(F)(F)F)cc2cc(C)c(Cl)nc12` [Example 1071], for which the EC50 was under 200 nM.
Regarding `Cc1cnc2c(OC(F)F)cc(C(=O)NC[C@](O)(c3cc4c(c(-c5cccc(F)c5Cl)n3)OC[C@]4(C)C(N)=O)C3CC3)cc2c1` [Example 1211], the EC50 is under 200 nM.
Consider `COc1cc(C(=O)NC[C@](O)(c2cc3c(c(-c4ccc(F)c(Cl)c4F)n2)OC[C@]3(C)C(N)=O)C2CC2)cc2cc(Br)c(C)nc12` [Example 1129], for which the EC50 was under 200 nM.
Still for that read-out and setting: under `COc1cc(C(=O)NC[C@](O)(c2cc3c(c(-c4cc(F)c(Cl)cc4Cl)n2)OC[C@]3(C)C(N)=O)C(F)(F)F)cc2cn(C3CC3)nc12` [Example 1265] stands under 200 nM.
In the case of `COc1cc(C(=O)NC[C@](O)(c2cc3c(c(-c4cc(F)c(F)c(F)c4)n2)OC[C@]3(C)C(N)=O)C2CC2)cc2cn(C3CC3)nc12` [Example 1273], the EC50 was under 200 nM.
Regarding `COc1cc(C(=O)NC[C@](O)(c2cc3c(c(C4=CCN(C(=O)OC(C)(C)C)CC4)n2)OC[C@]3(C)C(N)=O)C(F)(F)F)cc2cn(C3CC3)nc12` [Example 1241], the EC50 is over 200 nM.

The assay is the same for the next values; noted with them: human respiratory syncytial virus, genotype A “Long” strain RSV, MOI 0.1, CPE protection, read-out: Human RSV-A (“Long”).
Turning to `COc1cccc2[nH]nc(C(=O)NC[C@](O)(c3cc4c(c(-c5ccc(F)cc5)n3)OC[C@]4(C)C(N)=O)C(F)(F)F)c12` [Example 395], the EC50 is over 200 nM.
Turning to `COc1cc(C(=O)NC[C@](O)(c2cc3c(c(-c4ccc(F)cc4)n2)OC[C@]3(C)C(N)=O)C(F)(F)F)cn2cc(C(N)=O)nc12` [Example 61], the EC50 is under 200 nM.
Turning to `C[C@]1(C(N)=O)COc2c1cc([C@@](O)(CNC(=O)c1cnc3[nH]ccc3c1Cl)C(F)(F)F)nc2-c1ccc(F)cc1` [Example 333], the EC50 was over 200 nM.
For `COc1cc(C(=O)NC[C@](O)(c2cc3c(c(-c4ccc(F)cc4)n2)OC[C@]3(C)C(N)=O)C(F)(F)F)ccc1OC[C@H](C)O` [Example 133], the EC50 was under 200 nM.
On the same count and under the same terms, under `Cc1c(C(=O)NC[C@](O)(c2cc3c(c(-c4ccc(F)cc4)n2)OC[C@]3(C)C(N)=O)C(F)(F)F)ccc2[nH]ncc12` [Example 101] stands under 200 nM; under `C[C@]1(C(N)=O)COc2c1cc([C@@](O)(CNC(=O)c1cnn(-c3ccccc3F)c1)C(F)(F)F)nc2-c1ccc(F)cc1` [Example 454], under 200 nM.
As for `COc1cc(C(=O)NC[C@](O)(c2cc3c(c(-c4ccc(F)cc4)n2)OC[C@]3(C)C(N)=O)C(F)(F)F)ccc1OC[C@@H](O)C(F)(F)F` [Example 131], the EC50 is under 200 nM.
Same read-out and setting: under `C[C@]1(C(N)=O)COc2c1cc([C@@](O)(CNC(=O)c1c[nH]c3nccnc13)C(F)(F)F)nc2-c1ccc(F)cc1` [Example 351] stands over 200 nM; under `C[C@]1(C(N)=O)COc2c1cc([C@@](O)(CNC(=O)c1n[nH]c3ccc(F)cc13)C(F)(F)F)nc2-c1ccc(F)cc1` [Example 397], over 200 nM.
For the molecule `Cn1cccc1C(=O)NC[C@](O)(c1cc2c(c(-c3ccc(F)cc3)n1)OC[C@]2(C)C(N)=O)C(F)(F)F` [Example 425], the EC50 was over 200 nM.
As for `NC(=O)[C@]1(C2CC2)COc2c1cc([C@@](O)(CNC(=O)c1cc(OC3CC3)c3ncccc3c1)C(F)(F)F)nc2-c1ccc(F)cc1` [Example 271], the EC50 was over 200 nM.
Consider `C[C@]1(C(N)=O)COc2c1cc([C@@](O)(CNC(=O)c1ccc3cc[nH]c3c1)C(F)(F)F)nc2-c1ccc(F)cc1` [Example 196], for which the EC50 was over 200 nM.
`C[C@@H](O)CNc1nc2ccc(C(=O)NC[C@](O)(c3cc4c(c(-c5ccc(F)cc5)n3)OC[C@]4(C)C(N)=O)C(F)(F)F)cc2s1` [Example 164]: the EC50 was under 200 nM.
As for `COc1ccc(-n2cc(C(=O)NC[C@](O)(c3cc4c(c(-c5ccc(F)cc5)n3)OC[C@]4(C)C(N)=O)C(F)(F)F)cn2)cc1` [Example 450], the EC50 was over 200 nM.
`Cc1ncccc1C(=O)NC[C@](O)(c1cc2c(c(-c3ccc(F)cc3)n1)OC[C@]2(C)C(N)=O)C(F)(F)F` [Example 334]: the EC50 was over 200 nM.
Take `Cc1sc(-c2ccccc2)nc1C(=O)NC[C@](O)(c1cc2c(c(-c3ccc(F)cc3)n1)OC[C@]2(C)C(N)=O)C(F)(F)F` [Example 483]: the EC50 is over 200 nM.
Consider `C[C@]1(C(N)=O)COc2c1cc([C@@](O)(CNC(=O)c1ncc[nH]1)C(F)(F)F)nc2-c1ccc(F)cc1` [Example 426], for which the EC50 is over 200 nM.
Regarding `C[C@]1(C(N)=O)COc2c1cc([C@@](O)(CNC(=O)c1ccc3sccc3c1)C(F)(F)F)nc2-c1ccc(F)cc1` [Example 357], the EC50 was over 200 nM.
Turning to `Cc1cc2[nH]ncc2cc1C(=O)NC[C@](O)(c1cc2c(c(-c3ccc(F)cc3)n1)OC[C@]2(C)C(N)=O)C(F)(F)F` [Example 127], the EC50 was over 200 nM.
Consider `C[C@]1(C(N)=O)COc2c1cc([C@@](O)(CNC(=O)c1cnc3[nH]cnc3c1)C(F)(F)F)nc2-c1ccc(F)cc1` [Example 365], for which the EC50 is over 200 nM.
In the case of `CC(C)Oc1ccc2nc(C(=O)NC[C@](O)(c3cc4c(c(-c5ccc(F)cc5)n3)OC[C@]4(C)C(N)=O)C(F)(F)F)cn2c1` [Example 812], the EC50 was over 200 nM.
Turning to `C[C@]1(C(N)=O)COc2c1cc([C@@](O)(CNC(=O)c1c[nH]c3ncc(F)cc13)C(F)(F)F)nc2-c1ccc(F)cc1` [Example 353], the EC50 is over 200 nM.
Same read-out and setting: the figure for `Cc1c(C(=O)NC[C@](O)(c2cc3c(c(-c4ccc(F)cc4)n2)OC[C@]3(C)C(N)=O)C(F)(F)F)sc2ccccc12` [Example 435] is over 200 nM; for `C[C@]1(C(N)=O)COc2c1cc([C@@](O)(CNC(=O)c1cnn(C3CC3)c1)C(F)(F)F)nc2-c1ccc(F)cc1` [Example 461] it is under 200 nM.
Consider `Cc1cc(C(=O)NC[C@](O)(c2cc3c(c(-c4ccc(F)cc4)n2)OC[C@]3(C)C(N)=O)C(F)(F)F)ccn1` [Example 344], for which the EC50 is under 200 nM.
Still for that read-out and setting: the figure for `COc1cc(C(=O)NC[C@](O)(c2cc3c(c(-c4ccc(F)cc4)n2)OC[C@]3(CF)C(N)=O)C(F)(F)F)cn2cc(C3CC3)nc12` [Example 292] is under 200 nM; for `C[C@]1(C(N)=O)COc2c1cc([C@@](O)(CNC(=O)c1ccc3oc(N)nc3c1)C(F)(F)F)nc2-c1ccc(F)cc1` [Example 191] it is under 200 nM; for `C[C@]1(C(N)=O)COc2c1cc([C@@](O)(CNC(=O)c1ccnc3[nH]ccc13)C(F)(F)F)nc2-c1ccc(F)cc1` [Example 369] it is under 200 nM.
As for `CC[C@]1(C(N)=O)COc2c1cc([C@@](O)(CNC(=O)c1cc(OC)c3nc(C4CC4)cn3c1)C(F)(F)F)nc2-c1ccc(F)cc1` [Example 236], the EC50 was under 200 nM.
`C[C@]1(C(N)=O)COc2c1cc([C@@](O)(CNC(=O)c1cc(Br)c3[nH]c(C4CC4)nc3c1)C(F)(F)F)nc2-c1ccc(F)cc1` [Example 204]: the EC50 was under 200 nM.
Take `COc1cc(C(=O)NC[C@](O)(c2cc3c(c(-c4ccc(F)cc4)n2)OC[C@]3(CF)C(N)=O)C(F)(F)F)cc2cc(C(F)(F)F)cnc12` [Example 287]: the EC50 is under 200 nM.
Regarding `CC[C@]1(C(N)=O)COc2c1cc([C@@](O)(CNC(=O)c1cc(OC)c3ncc(C(F)(F)F)cc3c1)C(F)(F)F)nc2-c1ccc(F)cc1` [Example 239], the EC50 is under 200 nM.
Regarding `COc1cccc(-c2cc(C(=O)NC[C@](O)(c3cc4c(c(-c5ccc(F)cc5)n3)OC[C@]4(C)C(N)=O)C(F)(F)F)n[nH]2)c1` [Example 208], the EC50 was over 200 nM.
Same read-out and setting: under `C[C@@H](O)COc1ccc(C(=O)NC[C@](O)(c2cc3c(c(-c4ccc(F)cc4)n2)OC[C@]3(CF)C(N)=O)C(F)(F)F)cc1OC1CC1` [Example 294] stands under 200 nM; under `COc1cc(C(=O)NC[C@](O)(c2cc3c(c(-c4ccc(F)cc4)n2)OCC3(C(N)=O)C(F)F)C(F)(F)F)cn2cc(C3CC3)nc12` (stereo partly shown) [Example 259], under 200 nM; under `C[C@]1(C(N)=O)COc2c1cc([C@@](O)(CNC(=O)c1ccc3ncc(C(F)(F)F)cc3c1)C(F)(F)F)nc2-c1ccc(F)cc1` [Example 69], under 200 nM.
For `COc1cc(C(=O)NC[C@](O)(c2cc3c(c(-c4ccc(F)cc4)n2)OC[C@@]3(C(N)=O)C2CC2)C(F)(F)F)cc2cc(Cl)c(C)nc12` [Example 274], the EC50 is under 200 nM.
Regarding `COc1cc(C(=O)NC[C@](O)(c2cc3c(c(-c4ccc(F)cc4)n2)OC[C@]3(C)C(N)=O)C(F)(F)F)cc2c1NC(=O)C2` [Example 225], the EC50 was under 200 nM.
For the molecule `CN[C@H](C)COc1ccc(C(=O)NC[C@](O)(c2cc3c(c(-c4ccc(F)cc4)n2)OC[C@]3(C)C(N)=O)C(F)(F)F)cc1OC` [Example 151], the EC50 was over 200 nM.
